Reference: ChEMBL document CHEMBL1201862, “PubChem BioAssay data set” (2004)
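How tested: cells in 96-well plates exposed to compound for 48 hours at five concentrations. The concentration for 50% growth inhibition is given as GI50.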 The source made the active and inactive calls. No stated cut-off is given here; in the data, active = GI50 up to about 1.1 µM and inactive = higher.

Tests used:
Assay in all cases: DTP human tumour cell line panel, 48 h
[1] = tested on: A549
[2] = tested on: ACHN
[3] = tested on: CAKI-1
[4] = tested on: CCRF-CEM
[5] = tested on: DLD-1
[6] = tested on: DMS-273
[7] = tested on: EKVX
[8] = tested on: HCT-116
[9] = tested on: HCT-15
[10] = tested on: HL-60
[11] = tested on: HOP-18
[12] = tested on: HOP-62
[13] = tested on: HT-29
[14] = tested on: IGROV-1
[15] = tested on: K562
[16] = tested on: KM-20L2
[17] = tested on: LOX IMVI
[18] = tested on: LXFL 529
[19] = tested on: M14
[20] = tested on: MOLT-4
[21] = tested on: Malme-3M
[22] = tested on: NCI-H226
[23] = tested on: NCI-H23
[24] = tested on: NCI-H460
[25] = tested on: NCI-H522
[26] = tested on: OVCAR-3
[27] = tested on: OVCAR-4
[28] = tested on: OVCAR-5
[29] = tested on: OVCAR-8
[30] = tested on: RPMI-8226
[31] = tested on: RXF 393
[32] = tested on: RXF 631
[33] = tested on: SF-268
[34] = tested on: SF-295
[35] = tested on: SF-539
[36] = tested on: SK-MEL-2
[37] = tested on: SK-MEL-5
[38] = tested on: SK-OV-3
[39] = tested on: SN12C
[40] = tested on: SNB-19
[41] = tested on: SNB-75
[42] = tested on: SNB-78
[43] = tested on: SR
[44] = tested on: SW-620
[45] = tested on: TK-10
[46] = tested on: U-251
[47] = tested on: UACC-257
[48] = tested on: UACC-62
[49] = tested on: 786-0
[50] = tested on: COLO 205
[51] = tested on: DMS-114
[52] = tested on: HCC 2998
[53] = tested on: HOP-92
[54] = tested on: KM12
[55] = tested on: M19-MEL
[56] = tested on: SK-MEL-28
[57] = tested on: UO-31

CCOC(=O)C1CCn2c(nc3c(=O)n(C)c(=O)n(C)c32)S1 (stereo not drawn)
GI50 [1]: > 100 µM (inactive)
GI50 [2]: > 100 µM (inactive)
GI50 [3]: > 100 µM (inactive)
GI50 [4]: > 100 µM (inactive)
GI50 [5]: > 100 µM (inactive)
GI50 [6]: > 100 µM (inactive)
GI50 [7]: > 100 µM (inactive)
GI50 [8]: > 100 µM (inactive)
GI50 [9]: > 100 µM
GI50 [10]: > 100 µM (inactive)
GI50 [11]: > 100 µM (inactive)
GI50 [12]: > 100 µM (inactive)
GI50 [13]: > 100 µM (inactive)
GI50 [14]: > 100 µM (inactive)
GI50 [15]: > 100 µM (inactive)
GI50 [16]: > 100 µM (inactive)
GI50 [17]: > 100 µM (inactive)
GI50 [18]: > 100 µM (inactive)
GI50 [19]: > 100 µM (inactive)
GI50 [20]: > 100 µM (inactive)
GI50 [21]: > 100 µM (inactive)
GI50 [22]: > 100 µM (inactive)
GI50 [23]: > 100 µM (inactive)
GI50 [24]: > 100 µM (inactive)
GI50 [25]: > 100 µM (inactive)
GI50 [26]: > 100 µM (inactive)
GI50 [27]: > 100 µM (inactive)
GI50 [28]: > 100 µM (inactive)
GI50 [29]: > 100 µM (inactive)
GI50 [30]: > 100 µM (inactive)
GI50 [31]: > 100 µM (inactive)
GI50 [32]: > 100 µM (inactive)
GI50 [33]: > 100 µM (inactive)
GI50 [34]: > 100 µM (inactive)
GI50 [35]: > 100 µM (inactive)
GI50 [36]: > 100 µM (inactive)
GI50 [37]: > 100 µM (inactive)
GI50 [38]: > 100 µM (inactive)
GI50 [39]: > 100 µM (inactive)
GI50 [40]: > 100 µM (inactive)
GI50 [41]: > 100 µM (inactive)
GI50 [42]: > 100 µM (inactive)
GI50 [43]: > 100 µM (inactive)
GI50 [44]: > 100 µM (inactive)
GI50 [45]: > 100 µM (inactive)
GI50 [46]: > 100 µM (inactive)
GI50 [47]: > 100 µM (inactive)
GI50 [48]: > 100 µM (inactive)

[O-][S+]1c2ccc(Cl)cc2CC(SSC2Cc3cc(Cl)ccc3[S+]([O-])c3ccccc32)c2ccccc21 (stereo not drawn)
GI50 [49]: > 100 µM (inactive)
GI50 [1]: > 100 µM (inactive)
GI50 [2]: > 100 µM (inactive)
GI50 [3]: > 100 µM (inactive)
GI50 [4]: > 100 µM (inactive)
GI50 [50]: > 100 µM (inactive)
GI50 [5]: > 100 µM (inactive)
GI50 [51]: > 100 µM (inactive)
GI50 [6]: > 100 µM (inactive)
GI50 [7]: > 100 µM (inactive)
GI50 [52]: > 100 µM (inactive)
GI50 [8]: > 100 µM (inactive)
GI50 [10]: > 100 µM (inactive)
GI50 [11]: > 100 µM (inactive)
GI50 [12]: > 100 µM (inactive)
GI50 [53]: > 100 µM (inactive)
GI50 [13]: > 100 µM (inactive)
GI50 [14]: > 100 µM (inactive)
GI50 [15]: > 100 µM (inactive)
GI50 [16]: > 100 µM (inactive)
GI50 [54]: > 100 µM (inactive)
GI50 [17]: > 100 µM (inactive)
GI50 [18]: > 100 µM (inactive)
GI50 [19]: > 100 µM (inactive)
GI50 [55]: > 100 µM (inactive)
GI50 [20]: > 100 µM (inactive)
GI50 [21]: > 100 µM (inactive)
GI50 [22]: > 100 µM (inactive)
GI50 [23]: > 100 µM (inactive)
GI50 [24]: > 100 µM (inactive)
GI50 [25]: > 100 µM (inactive)
GI50 [26]: > 100 µM (inactive)
GI50 [27]: > 100 µM (inactive)
GI50 [28]: > 100 µM (inactive)
GI50 [29]: > 100 µM (inactive)
GI50 [30]: > 100 µM (inactive)
GI50 [31]: > 100 µM (inactive)
GI50 [32]: > 100 µM (inactive)
GI50 [33]: > 100 µM (inactive)
GI50 [34]: > 100 µM (inactive)
GI50 [35]: > 100 µM (inactive)
GI50 [56]: > 100 µM (inactive)
GI50 [36]: > 100 µM (inactive)
GI50 [37]: > 100 µM (inactive)
GI50 [38]: > 100 µM (inactive)
GI50 [39]: > 100 µM (inactive)
GI50 [40]: > 100 µM (inactive)
GI50 [41]: > 100 µM (inactive)
GI50 [42]: > 100 µM (inactive)
GI50 [44]: > 100 µM (inactive)
GI50 [45]: > 100 µM (inactive)
GI50 [46]: > 100 µM (inactive)
GI50 [47]: > 100 µM (inactive)
GI50 [48]: > 100 µM (inactive)
GI50 [57]: > 100 µM (inactive)
